Consider 15 compounds from ChEMBL document CHEMBL1136280, “Geraniol-derived 1,2,4-trioxanes with potent in-vivo antimalarial activity” (2003).

Common to all, as to assay type: functional
Assay [1] deals with Mus musculus. In words: Number of survival out of 5 mice on day 28 at the dose of 48 mg/kg/day i.m. The conditions noted are these: route intramuscular.
For assay [2], the system named is Mus musculus. Description: Number of survival out of 5 mice on day 28 at the dose of 48 mg/kg/day orally. The conditions noted are these: route oral.
The subject of assay [3] is Mus musculus. Description: Number of survival out of 5 mice on day 28 at the dose of 96 mg/kg/day i.m. The conditions noted are these: route intramuscular.
The test system of assay [4] is Mus musculus. In words: Number of survival out of 5 mice on day 28 at the dose of 96 mg/kg/day orally. The conditions noted are these: route oral.
For assay [5], the system named is Mus musculus. In words: Mean survival time calculated for the mice which died during 28 day observation period at the dose of 48 mg/kg/day i.m. The conditions noted are these: route intramuscular.
Assay [6] deals with Mus musculus. Description: Mean survival time calculated for the mice which died during 28 day observation period at the dose of 48 mg/kg/day orally. The conditions noted are these: route oral.
The subject of assay [7] is Mus musculus. In words: Mean survival time calculated for the mice which died during 28 day observation period at the dose of 96 mg/kg/day i.m. The conditions noted are these: route intramuscular.
Assay [8] concerns Mus musculus. Description: Mean survival time calculated for the mice which died during 28 day observation period at the dose of 96 mg/kg/day orally. The conditions noted are these: route oral.
Assay [9] deals with Mus musculus. In words: In vivo antimalarial activity against Plasmodium yoelii in Swiss mice (Mus musculus) on day 4 at the dose of 48 mg/kg/day intramuscular.
Assay [10] relates to Mus musculus. Description: In vivo antimalarial activity against Plasmodium yoelii in Swiss mice (Mus musculus) on day 4 at the dose of 48 mg/kg/day orally. The conditions noted are these: route oral.
Assay [11] concerns Mus musculus. In words: In vivo antimalarial activity against Plasmodium yoelii in Swiss mice (Mus musculus) on day 4 at the dose of 96 mg/kg/day intramuscular.
For assay [12], the system named is Mus musculus. In words: In vivo antimalarial activity against Plasmodium yoelii in Swiss mice (Mus musculus) on day 4 at the dose of 96 mg/kg/day orally. The conditions noted are these: route oral.
Assay [13] has as its system Mus musculus. In words: Number of survival out of 5 mice on day 28 at the dose of 24 mg/kg/day i.m. The conditions noted are these: route intramuscular.
Assay [14] has as its system Mus musculus. In words: Mean survival time calculated for the mice which died during 28 day observation period at the dose of 24 mg/kg/day i.m. The conditions noted are these: route intramuscular.
For assay [15], the system named is Mus musculus. In words: In vivo antimalarial activity against Plasmodium yoelii in Swiss mice (Mus musculus) on day 4 at the dose of 24 mg/kg/day intramuscular.
Assay [16] relates to Mus musculus. In words: Number of survival out of 5 mice on day 28 at the dose of 24 mg/kg/day orally. The conditions noted are these: route oral.
The test system of assay [17] is Mus musculus. In words: Mean survival time calculated for the mice which died during 28 day observation period at the dose of 24 mg/kg/day orally. The conditions noted are these: route oral.
The test system of assay [18] is Mus musculus. In words: In vivo antimalarial activity against Plasmodium yoelii in Swiss mice (Mus musculus) on day 4 at the dose of 24 mg/kg/day orally. The conditions noted are these: route oral.

Values joined by “and” are separate entries in the source; they are usually repeats but may differ in a detail not shown here. Equal entries are not always repeated.

For `C=C(CCC(O)c1ccc(-c2ccccc2)cc1)C1COC2(CCCCC2)OO1` (stereo not drawn), the Activity is on record as 0 in [1], 0 in assay [2], 4 in assay [3] and 0 in [4]. Also, the MST in assay [5] is recorded as 10.6; in assay [6] it was 11.2; in [7] it was 14; in assay [8] it was 13.8. The Suppression in assay [9] is listed as 81%; in [10], 77.5%; in [11] it was 96.4%; in [12], 100%.

Turning to `C=C(CCC(O)c1ccccc1)C1COC2(OO1)C1CC3CC(C1)CC2C3` (stereo not drawn), the Activity in [1] turned out to be 2; in assay [2] it was 0; in [3], 5; in assay [4] it was 2. Besides, the MST in [6] was 9; in assay [7], >28 and 15.57; in [8], 16.57. The Suppression in assay [9] came out at 98.1%; in assay [10], 62.4%; in assay [11], 100%; in assay [12], 100%.

For the compound `C=C(CCC(O)c1ccc(Cl)cc1)C1COC2(CCCCC2)OO1` (stereo not drawn), the Activity in assay [1] stood at 0; in assay [3] it was 5; in assay [4], 0. Also, the MST in [5] was 16; in assay [7], more than 28; in assay [8], 10.2. Besides, the Suppression in [9] is on record as 97.1%; in assay [11], 100%; in assay [12], 88.8%.

With `C=C(CCC(O)c1ccc(-c2ccccc2)cc1)C1COC2(CCCC2)OO1` (stereo not drawn), the Activity was 0 in assay [13]; 0 in [1]; 0 in [2]; 2 in [3]; 0 in [4]. In addition, the MST is given as 11.8 in [14]; 16.75 in assay [5]; 12 in assay [6]; 17.33 in assay [7]; 16 in assay [8]. The Suppression in [15] turned out to be 85.2%; in assay [9] it was 100%; in assay [10], 94.3%; in assay [11] it was 100%; in [12], 100%.

As to `C=C(CCC(O)c1cccc2ccccc12)C1COC2(CCCCC2)OO1` (stereo not drawn), the values for the Activity in [1], in assay [3] and in assay [4] were 0, 4 and 0, respectively. The MST was 14.2 in [5], 16 in [7] and 13 in assay [8]. The Suppression in assay [9] was found to be 93.4%; in [11], 100%; in [12], 68.4%.

Consider `C=C(CCC(O)c1cccc2ccccc12)C1COC2(OO1)C1CC3CC(C1)CC2C3` (stereo not drawn), for which the Activity was 0 in assay [16], 2 in [2], 2 in assay [3] and 3 in [4]. The MST in [17] is 10.4; in [6], 15.57; in assay [7], 15.33; in assay [8], 17. The Suppression in [18] was 87.1%; in [10], 100%; in assay [11] it was 72.13%; in [12] it was 100%.

As for `C=C(CCC(O)c1cccc2ccccc12)C1COC2(CCCC2)OO1` (stereo not drawn), the Activity turned out to be 0 in assay [1], 1 in assay [3] and 0 in assay [4]. Also, the MST is 15.75 in assay [5], 14.75 in assay [7] and 10.4 in assay [8]. In addition, the Suppression is 93.4% in [9], 100% in assay [11] and 81.3% in assay [12].

With `C=C(CCC(O)c1ccccc1)C1COC2(CCCC2)OO1` (stereo not drawn), the results for the Activity in assay [1], in assay [3] and in assay [4] were 0, 2 and 0, respectively. Further, the figures for the MST in assay [5], in [7] and in [8] were 12.6, 14.8 and 8.2, respectively. Moreover, the Suppression in [15] is given as 67.7%; in assay [9] it was 100%; in assay [11], 100%.

On to `C=C(CCC(O)c1ccc(-c2ccccc2)cc1)C1COC2(OO1)C1CC3CC(C1)CC2C3` (stereo not drawn), for which the Activity is reported as 0 in assay [16], 2 in [2], 3 in [3] and 3 in [4]. Moreover, the MST is listed as 8.8 in assay [17], 17.57 in assay [6], 14.5 in [7] and 17.33 in assay [8]. For the same compound, the Suppression is listed as 90.4% in assay [18], 100% in [10], 79% in [11] and 100% in assay [12].

With `C=C(CCC(O)c1ccc(Cl)cc1)C1COC2(OO1)C1CC3CC(C1)CC2C3` (stereo not drawn), the Activity in assay [1] turned out to be 0; in [2] it was 0; in [3] it was 5; in assay [4] it was 5. Further, the MST is 10.2 in assay [6]; >28 and 15 in assay [7]; more than 28 in assay [8]. Further, the Suppression in assay [9] came to 78.9%; in [10], 90.8%; in assay [11], 100%; in [12] it was 100%.

Take `C=C(CCC(O)c1ccc(Cl)cc1)C1COC2(CCCC2)OO1` (stereo not drawn): the values for the Activity in assay [1], in [3] and in assay [4] were 0, 2 and 0, respectively. For the same compound, the MST in assay [5] is on record as 14.57; in assay [7], 14.57; in [8], 7.4. For the same compound, the Suppression in assay [9] was 98.4%; in [11], 100%; in assay [12] it was 29.6%.

As for `C=C(CCC(O)c1ccccc1)C1COC2(CCCCC2)OO1` (stereo not drawn), the Activity in [16], in assay [1] and in assay [3] was 0 in each case. Also, the MST was 12.6 in [5], 14.4 in assay [7] and 11.6 in assay [8]. Further, the Suppression was 90.5% in [9], 94.5% in [11] and 65% in assay [12].

With `C=C(C)C(O)CCC(=C)C1COC2(OO1)C1CC3CC(C1)CC2C3` (stereo not drawn), the figures for the Activity in assay [13], in assay [1] and in [3] were 0, 0 and 2, respectively. Further, the MST in assay [14] is given as 12.2; in assay [5], 14.8; in [7], 19.57. Further, the Suppression was determined as 67.7% in assay [15], 100% in [9] and 100% in assay [11].

Regarding `C[C@@H]1CC[C@H]2[C@@H](C)C(=O)O[C@@H]3O[C@@]4(C)CC[C@@H]1[C@]32OO4` [ARTEMISININ], the Activity in assay [13] is recorded as 4; in [1] it was 5. For the same compound, the MST in [6] is 16; in assay [7], more than 28. The Suppression in assay [15] and in assay [9] was 100% throughout.

Consider `CCN(CC)CCCC(C)Nc1ccnc2cc(Cl)ccc12` (stereo not drawn) [CHLOROQUINE], for which the Activity in assay [2] and in assay [4] was 4 throughout. The MST in assay [6] is listed as 17.6; in [8], 20. The Suppression in assay [10] and in assay [12] was 100% in each case.
